Experimental data from patent US12241021B2, “Method for fracking of simulation of hydrocarbon bearing formation” (Fluid Energy Group Ltd., priority 2018, dated 2025).

Assay: Corrosion testing of 316 steel coupons with acidic fluids
Conditions: for corrosion protection when used separately: alkyne alcohol or cinnamaldehyde alone in the inhibitor
Text: Corrosion inhibitor compositions according to preferred embodiments of the present invention were exposed to corrosion testing. Various steel grades (stainless steel and carbon steel) were subjected to acid compositions comprising corrosion inhibitors according to the present invention against known corrosion inhibitors to the listed compositions for various periods of time at varying temperatures. A desirable corrosion inhibition result was one where the lb/ft2 corrosion number is at or below 0.05. More preferably, that number is at or below 0.02.
33% HCl; MEA in a 5.5:1 ratio and 50% HCl; MEA in a 5.5:1 ratio indicate the volume amount of the original concentration of a stock solution containing HCl and Monoethanolamine in a ratio of 5.5:1. The HCl loading of a 33% HCl; MEA in a 5.5:1 ratio is approximately 6.5% HCl. The HCl loading of 50% HCl; MEA in a 5.5:1 ratio is approximately 10% HCl.

Row | SMILES | prevention of pitting (higher temperatures (even 110° C. to 120° C.)) | corrosion protection when used separately | film forming, protection of stainless steel (at these temperatures (90° C. to 120° C.))
1 | CC(C)=CCCC(C)=CC=O (racemic) [Citral, (±)-3,7-Dimethyl-2,6-octadienal] | some effectiveness for the prevention of pitting | – | –
2 | O=CC=Cc1ccccc1 [cinnamaldehyde] | – | did not provide corrosion protection sufficient | effective film former
3 | C#CCO [propargyl alcohol] | – | did not provide corrosion protection sufficient | –
